2 compounds from article PMC8645223, “Development of a simple and miniaturized sandwich-like fluorescence polarization assay for rapid screening of SARS-CoV-2 main protease inhibitors” (Cell & Bioscience, 2021) can be followed below.

In series [1] the target is T1, SARS-CoV-2 Mpro (Severe acute respiratory syndrome coronavirus 2, UniProt P0DTD1). The experiment in a line: FRET assay, inhibition of Mpro proteolytic activity. The series is classed as biochemical. As to conditions: for IC50: IC50, FRET assay. As to the method: As described previously, the inhibitory activity of dieckol against Mpro was preformed using a FRET assay. In brief, 50 µL sample of Mpro (0.4 µM) was preincubated with the indicated concentrations of dieckol (initial concentration: 100 µM, 8 two-fold dilutions) at RT for 35 min in FP assay buffer, and the reaction was initiated by adding 5 µM FRET substrate. DMSO and GC-376 (1 µM) was used as a negative and positive control, respectively. The RFU change was separately measured as described previously every second for 3 min by a microplate reader. The VI was calculated by a slope of the linear regression in the first 30 s, and the IC50 value was calculated using the following equation:3 Dieckolinhibition(%)=1-VIDieckol/VIDMSO×100%
To clarify the inhibitory mechanism of dieckol, the fixed concentrations of dieckol (0, 2, 4, 6 µM) were separately added to 50 µL sample of Mpro (0.4 µM), and the mixture was preincubated for 10 min at RT. After adding 5 µM FRET substrate, the VI was measured using a FRET assay. The inhibition mechanism of dieckol was inferred using the LB plot and a Ki value was generated by its secondary plot.

The target in series [2] is T1, SARS-CoV-2 Mpro. The experiment in a line: SPR binding assay. As to the method: The binding affinity between dieckol and Mpro was measured using a real-time SPR spectroscopy instrument (Reichert 2SPR, Buffalo, USA). In all, 20 µL Mpro (1.6 mg/mL) in 10 mM NaAc buffer (pH5.5) was immobilized to a surface activated CM5 gold biosensor (Reichert Inc., New York, USA), and the active sites were quenched with 1 M ethanolamine buffer (pH8.0). After washing the sample loop, an indicated concentration of dieckol (0, 6.25, 12.5, 25 µM) was separately injected on the surface of the Mpro-captured biosensor at RT. The binding time of the analyte to the ligand was 90 s, and the dissociation kinetic was recorded during 330 s. Finally, the real RIU was continuously monitored, and the RIU can be related to arbitrary resonance unit (RU) as 1 µRIU = 0.733 RU. The KD value was calculated using the analyte binding kinetic curve plotted by Trace Drawer software (Ridgeview Instruments, Sweden).
A general note: Surface plasmon resonance follows binding to a sensor surface in real time, without labels.

Series [3] addresses T1, SARS-CoV-2 Mpro. The experiment in a line: sandwich-like FP screening assay. The series is classed as biochemical.
Series [4] deals with COc1ccc2c(CC(=O)N[C@@H](C)C(=O)N[C@H](C(=O)N[C@@H](CC(C)C)C(=O)N[C@@H](CCC(N)=O)C(=O)N[C@@H](CO)C(=O)NCC(=O)N[C@@H](Cc3ccccc3)C(=O)N[C@@H](CCCNC(=N)N)C(=O)N[C@@H](CCCCNc3ccc([N+](=O)[O-])cc3[N+](=O)[O-])C(=O)N[C@@H](CCCCN)C(N)=O)C(C)C)cc(=O)oc2c1. The experiment in a line: purified protein, by the assay type. As to conditions: pH 8.0.

In the case of `Oc1cc(O)cc(Oc2c(O)cc(O)c3c2Oc2c(O)cc(Oc4c(O)cc(Oc5c(O)cc(O)c6c5Oc5c(O)cc(O)cc5O6)cc4O)cc2O3)c1` [dieckol], the inhibition constant Ki in series [1] came out at 3.3 µM. Further, the IC50 in series [1] (absence of DTT) was 1.8 ± 0.2 µM; in series [1] (presence of 1 mM DTT), 3.8 ± 0.3 µM; in series [3] (absence of DTT) it was 2.9 ± 0.2 µM; in series [3] (presence of 1 mM DTT), 4.5 ± 0.4 µM. Besides, the inhibition mechanism entry in series [1] (Lineweaver-Burk plot, same Vmax, varying Km) is “competitive inhibitor”. Further, binding in series [2] was characterised by a dissociation constant (Kd) of 0.22 µM. Moreover, the kd in series [2] (SPR dissociation rate) was 0.000226 s⁻¹.
Turning to “SARS-CoV-2 Mpro (Severe acute respiratory syndrome coronavirus 2)”, the Michaelis-Menten constant (Km) in series [4] came to 19.78 µM.

The term Ki denotes a dissociation constant, usually derived from enzyme kinetics or from competition with a known ligand. By IC50 is commonly meant the concentration that inhibits the measured activity by half. As a reminder, the Kd is the equilibrium constant for the complex coming apart. A higher Kd goes with lower affinity. As a reminder, the Km is the substrate concentration at which the rate is half of its maximum.
